Data from ChEMBL document CHEMBL1165921, “New potent inhibitors of tyrosinase: novel clues to binding of 1,3,4-thiadiazole-2(3H)-thiones, 1,3,4-oxadiazole-2(3H)-thiones, 4-amino-1,2,4-triazole-5(4H)-thiones, and substituted hydrazides to the dicopper active site” (Bioorg Med Chem, 2010).

Target: T1, Tyrosinase (Agaricus bisporus, UniProt O42713)
T1 sequence (O42713 whole entry): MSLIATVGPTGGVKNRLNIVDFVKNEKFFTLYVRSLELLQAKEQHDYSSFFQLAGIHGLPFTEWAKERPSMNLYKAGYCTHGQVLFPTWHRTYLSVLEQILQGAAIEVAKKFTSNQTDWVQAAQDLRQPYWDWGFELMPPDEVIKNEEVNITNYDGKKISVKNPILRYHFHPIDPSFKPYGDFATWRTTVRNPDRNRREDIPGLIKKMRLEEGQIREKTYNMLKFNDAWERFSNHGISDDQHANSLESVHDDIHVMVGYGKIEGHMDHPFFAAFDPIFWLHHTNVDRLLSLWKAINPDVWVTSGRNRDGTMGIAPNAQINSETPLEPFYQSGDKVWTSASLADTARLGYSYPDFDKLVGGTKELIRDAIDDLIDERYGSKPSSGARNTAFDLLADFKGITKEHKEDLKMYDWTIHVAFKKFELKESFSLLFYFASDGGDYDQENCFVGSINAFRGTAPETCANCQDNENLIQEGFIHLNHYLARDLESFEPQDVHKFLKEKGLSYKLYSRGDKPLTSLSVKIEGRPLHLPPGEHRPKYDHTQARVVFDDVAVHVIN
Description: Inhibition of mashroom tyrosinase

SMILES | Ki [µM]
Sc1nnc(Cc2nnc(S)o2)o1 | 4.42
Sc1nnc(-c2ccccc2)s1 | 1.31
Sc1nnc(-c2ccncc2)o1 | 14.2
S=c1[nH]nc(C2CCCCC2)o1 | 4.94
Nn1c(-c2ccncc2)n[nH]c1=S | 1.01
Sc1nnc(CCCc2nnc(S)o2)o1 | 1.9
S=c1[nH]nc(-c2ccc(OCc3ccccc3)cc2)o1 | 1.35
S=c1[nH]nc(-c2ccccc2)o1 | 6.47
Oc1ccc(-c2nnc(S)o2)cc1 | 1.77
Sc1nnc(Cc2nnc(S)s2)s1 | 0.49
Sc1nnc(-c2cccc(OCc3ccccc3)c2)o1 | 3.64
Oc1ccc(-c2nnc(S)s2)cc1 | 0.19
S=c1[nH]nc(-c2n[nH]c(=S)o2)o1 | 69.4
NNC(=O)c1ccc2ccccc2c1 | 99.6
Nn1c(-c2ccc(O)cc2)n[nH]c1=S | 2.4
S=c1[nH]nc(-c2n[nH]c(=S)s2)s1 | 2.9
S=c1[nH]nc(C(c2ccccc2)c2ccccc2)s1 | 5.2
S=c1[nH]nc(-c2ccncc2)s1 | 2.47
NNC(=O)c1ccc(OCc2ccccc2)cc1 | 49
NNC(=O)c1ccc(O)cc1 | 177
Oc1cccc(-c2nnc(S)o2)c1 | 18.5
Sc1nnc(C(c2ccccc2)c2ccccc2)o1 | 6.76
S=c1[nH]nc(-c2cccc3ccccc23)o1 | 33.6
CC(C)(C)[Si](C)(C)Oc1ccc(-c2nnc(S)s2)cc1 | 0.53
Sc1nnc(Cc2ccccc2)o1 | 3.67
